{"source": "patent US20070015828A1", "about": "(Wyeth, priority 2005, published 2007)", "key": {"Melatonin": {"tested_on": "Melatonin", "test": "Receptor binding assay: Melatonin", "conditions": "Test Compound @ 10 1 M"}, "Sigma 1": {"tested_on": "Sigma 1", "test": "Receptor binding assay: Sigma 1", "conditions": "Test Compound @ 10 1 M"}, "[1]": {"tested_on": "spinal nerve ligation model of neuropathic pain, tactile allodynia", "test": "Spinal nerve ligation model of neuropathic pain, tactile allodynia", "assay_type": "in vivo", "conditions": "rat, up to 100 mg/kg", "description": "1-[2-dimethylamino-1-(4-phenol)ethyl]-cis-1,4-cyclohexandiol was evaluated in two in-vivo animal models for pain, including a Visceral Pain model and a Neuropathic Pain model.\nSurgical procedures were performed under 4% isoflurane/O2 anesthesia, delivered via nose cone and maintained at 2.5% for the duration of the surgery. After induction of anesthesia, the incision site was shaved and prepared in a sterile manner. Spinal nerve ligation (SNL) surgery was performed as previously described [Kim, S. H. and Chung, J. M., An experimental model for peripheral neuropathy produced by segmental spinal nerve ligation in the rat, Pain, 50 (1992) 355-63] with the exception that nerve injury was produced by tight ligation of the left L5 spinal nerve. Briefly, a midline incision was made and the L5 transverse process was removed and the nerve was tightly ligated with 6-0 silk suture material and the wound was closed in layers with 4-0 vicryl suture and the skin closed with wound clips."}, "[2]": {"tested_on": "mouse PPQ induced writhing model", "test": "Visceral pain model: PPQ-induced constrictions (writhing)", "assay_type": "in vivo", "description": "1-[2-dimethylamino-1-(4-phenol)ethyl]-cis-1,4-cyclohexandiol was dissolved in sterile saline and administered orally (p.o.) at dosages of 10 mg/kg, 30 mg/kg and 100 mg/kg. Gabapentin was purchased from Toronto Research Chemicals (Ontario, Canada) and suspended in 2% Tween 80 in 0.5% methylcellulose and administered intraperitoneally (i.p.).\nFor the visceral pain study male CD-1 mice (20-25 g, Charles River; Kingston/Stoneridge, NY) were housed in groups of 5/cage on bedding and for the neuropathic study male Sprague-Dawley rats (125-150 g, Harlan; Indianapolis, Ind.) were housed 3/cage on bedding. […]\nThe ability of 1-[2-dimethylamino-1-(4-phenol)ethyl]-cis-1,4-cyclohexandiol to attenuate acute visceral (abdominal) pain was assessed following an i.p. injection of 2 mg/kg PPQ (dissolved in 4% ethanol in distilled water, Sigma-Aldrich, St. Louis, Mo.) [Siegmund, E., et al., Proceedings of the Society for Experimental Biology and Medicine., 95 (1957) […]]. […] During testing, following PPQ administration, mice were individually placed in a Plexiglas cage and the total number of abdominal constrictions was recorded for one-minute periods, starting at 5 and 10 minutes after PPQ injection.\nStatistical significance was determined using a one-way ANOVA using a customized SAS-excel application (SAS Institute, Cary, N.C.). […]"}, "Adrenergic, Beta 2 (hr)": {"molecular_target": "Adrenergic, Beta 2 (hr) (Homo sapiens, UniProt P07550)", "sequence (P07550 whole entry)": "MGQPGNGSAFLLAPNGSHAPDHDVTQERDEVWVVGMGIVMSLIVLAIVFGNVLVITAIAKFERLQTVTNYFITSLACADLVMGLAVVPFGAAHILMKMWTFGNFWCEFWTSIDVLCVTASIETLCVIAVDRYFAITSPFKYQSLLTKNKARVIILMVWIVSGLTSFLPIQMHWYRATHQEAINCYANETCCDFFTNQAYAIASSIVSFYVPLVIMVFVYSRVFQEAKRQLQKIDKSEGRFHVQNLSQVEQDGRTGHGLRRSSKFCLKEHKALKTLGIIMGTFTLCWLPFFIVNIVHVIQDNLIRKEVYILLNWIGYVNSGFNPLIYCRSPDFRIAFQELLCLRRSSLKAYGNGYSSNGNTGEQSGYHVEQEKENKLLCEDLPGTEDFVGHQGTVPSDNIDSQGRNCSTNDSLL", "test": "Receptor binding assay: Adrenergic Beta 2", "conditions": "Test Compound @ 10 1 M"}, "Oxidase, MAO-A, Central": {"tested_on": "Oxidase, MAO-A, Central", "test": "Receptor binding assay: Oxidase MAO-A central (second line)", "conditions": "Test Compound @ 10 1 M"}, "[3]": {"test": "In vitro metabolism in hepatic microsomes, rat", "assay_type": "in vitro ADME", "conditions": "Sprague-Dawley rats, read-out: t1/2 in hepatic microsomes", "description": "In vitro metabolism of 1-[2-dimethylamino-1-(4-phenol)ethyl]-cis-1,4-cyclohexandiol was conducted in the hepatic microsomes of Sprague-Dawley rats, male dogs, male monkeys and mixed male and female humans to characterize metabolic stability and identification of metabolites. 1-[2-dimethylamino-1-(4-phenol)ethyl]-cis-1,4-cyclohexandiol was stable (t1/2>60 minutes) in hepatic microsomes indicating Phase I and II metabolism was minimal in all species."}, "Dopamine, D2s (hr)": {"molecular_target": "Dopamine, D2s (hr) (Homo sapiens, UniProt P14416)", "sequence (P14416 1-414 isoform P14416-2)": "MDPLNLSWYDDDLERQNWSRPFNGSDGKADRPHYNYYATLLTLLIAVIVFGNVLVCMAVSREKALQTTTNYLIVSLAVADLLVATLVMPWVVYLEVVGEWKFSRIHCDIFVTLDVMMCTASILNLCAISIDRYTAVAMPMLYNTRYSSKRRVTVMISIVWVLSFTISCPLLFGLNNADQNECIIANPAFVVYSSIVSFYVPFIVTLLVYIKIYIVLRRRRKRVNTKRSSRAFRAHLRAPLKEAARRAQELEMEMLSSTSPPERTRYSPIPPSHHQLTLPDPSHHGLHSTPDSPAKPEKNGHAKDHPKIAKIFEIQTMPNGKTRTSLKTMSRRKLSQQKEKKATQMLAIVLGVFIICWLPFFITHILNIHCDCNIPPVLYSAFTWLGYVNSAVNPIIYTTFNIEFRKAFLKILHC", "test": "Receptor binding assay: Dopamine D2s", "conditions": "Test Compound @ 10 1 M"}, "Histamine, H1": {"molecular_target": "T1, Histamine, H1 (Bos taurus, UniProt P30546)", "T1 construct": "Novascreen (assay provider)", "T1 sequence (P30546 whole entry)": "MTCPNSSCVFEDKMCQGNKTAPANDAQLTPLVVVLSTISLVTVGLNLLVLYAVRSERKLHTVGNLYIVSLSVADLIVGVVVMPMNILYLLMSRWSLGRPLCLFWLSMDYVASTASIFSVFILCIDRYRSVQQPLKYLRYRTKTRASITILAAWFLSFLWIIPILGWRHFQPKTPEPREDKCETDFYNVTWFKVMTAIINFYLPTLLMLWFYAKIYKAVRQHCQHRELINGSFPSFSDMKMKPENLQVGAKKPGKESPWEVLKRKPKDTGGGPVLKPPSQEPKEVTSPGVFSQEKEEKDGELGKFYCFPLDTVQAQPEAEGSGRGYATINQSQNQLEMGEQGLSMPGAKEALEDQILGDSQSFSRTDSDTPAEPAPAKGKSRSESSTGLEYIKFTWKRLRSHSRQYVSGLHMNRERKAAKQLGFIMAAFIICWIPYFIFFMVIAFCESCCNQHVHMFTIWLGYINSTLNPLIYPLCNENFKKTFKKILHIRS", "test": "Histamine H1 binding assay", "conditions": "Test Compound @ 10 1 M, read-out: Receptor Binding % Inhibition"}, "Serotonin, 5HT6 (hr)": {"molecular_target": "Serotonin, 5HT6 (hr) (Homo sapiens, UniProt P50406)", "sequence (P50406 whole entry)": "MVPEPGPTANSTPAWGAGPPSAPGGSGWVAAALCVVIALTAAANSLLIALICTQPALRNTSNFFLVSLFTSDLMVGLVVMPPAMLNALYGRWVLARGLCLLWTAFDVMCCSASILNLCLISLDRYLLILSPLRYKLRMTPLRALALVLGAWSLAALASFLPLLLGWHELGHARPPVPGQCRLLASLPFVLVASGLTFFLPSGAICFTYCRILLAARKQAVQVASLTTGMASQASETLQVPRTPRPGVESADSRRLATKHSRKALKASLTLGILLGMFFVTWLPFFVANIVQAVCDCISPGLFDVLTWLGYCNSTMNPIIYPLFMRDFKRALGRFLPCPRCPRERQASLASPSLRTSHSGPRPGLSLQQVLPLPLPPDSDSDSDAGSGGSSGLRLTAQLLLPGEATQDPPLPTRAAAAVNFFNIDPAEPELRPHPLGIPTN", "test": "Receptor binding assay: Serotonin 5HT6", "conditions": "Test Compound @ 10 1 M"}, "[4]": {"test": "Solution Stability in aqueous solutions", "assay_type": "physicochemical", "conditions": "room temperature, all aqueous solutions (pH 1.4-10.0)"}, "Imidazoline, I1": {"tested_on": "Imidazoline, I1", "test": "Imidazoline binding assay: I1", "conditions": "Test Compound @ 10 1 M"}, "Dopamine, D1 (hr)": {"molecular_target": "Dopamine, D1 (hr) (Homo sapiens, UniProt P21728)", "sequence (P21728 whole entry)": "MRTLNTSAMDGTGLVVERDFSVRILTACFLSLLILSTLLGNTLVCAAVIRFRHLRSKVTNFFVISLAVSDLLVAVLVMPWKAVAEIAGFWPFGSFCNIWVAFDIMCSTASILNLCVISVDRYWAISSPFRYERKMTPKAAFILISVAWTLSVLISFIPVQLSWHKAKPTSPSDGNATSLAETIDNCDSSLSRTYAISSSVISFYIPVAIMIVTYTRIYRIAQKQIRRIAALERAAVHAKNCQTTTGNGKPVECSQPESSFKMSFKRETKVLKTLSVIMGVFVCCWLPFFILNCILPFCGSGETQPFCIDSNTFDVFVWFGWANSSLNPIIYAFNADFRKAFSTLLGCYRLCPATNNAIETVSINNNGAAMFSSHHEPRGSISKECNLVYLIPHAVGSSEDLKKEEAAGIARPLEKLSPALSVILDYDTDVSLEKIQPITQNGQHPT", "test": "Receptor binding assay: Dopamine D1", "conditions": "Test Compound @ 10 1 M"}, "Imidazoline, I2 central": {"tested_on": "Imidazoline, I2 central", "test": "Imidazoline binding assay: I2 central", "conditions": "Test Compound @ 10 1 M"}, "Adrenergic, Alpha 1B": {"tested_on": "Adrenergic, Alpha 1B", "test": "Receptor binding assay: Adrenergic Alpha 1B", "conditions": "Test Compound @ 10 1 M"}, "CACO-2 cells": {"tested_on": "CACO-2 cells", "test": "Permeability assessment, HTS-24 CACO-2 model", "assay_type": "in vitro ADME", "description": "The rate of drug transport through the CACO-2 cells was determined as the Apparent Permeability Coefficient according to the following formula:\nPapp=AQ X Rv cm.s- AT 60.A.Co\nΔT=Change in time (minutes)\nCo=Initial concn in the donor chamber (mM.cm^−3)\nA=Surface area of membrane (cm^2)\n60=Conversion factor to give cm.s^−1\nRv=volume of receiver compartment.\nTransepithelial electrical resistance (TER) was calculated from resistance measurements according to the following formula: TER=(R[cells+filter+medium])−(R[filter+medium])×cell area.\nApparent permeability rates were interpreted as follows. […] Apparent permeability values less than metoprolol or propranolol are considered to be ≦90% fa (moderate permeability classification). Apparent permeability values of <10 nms^−1 are considered to be ≦50% fa (low permeability classification). TER values of <120 ohms cm^2 indicate low monolayer integrity over the assay period.\nA compound/metoprolol or propranolol ratio of <1 indicates a moderate to low permeability compound."}, "Dopamine, D4.4 (hr)": {"molecular_target": "Dopamine, D4.4 (hr) (Homo sapiens, UniProt P21917)", "sequence (P21917 whole entry)": "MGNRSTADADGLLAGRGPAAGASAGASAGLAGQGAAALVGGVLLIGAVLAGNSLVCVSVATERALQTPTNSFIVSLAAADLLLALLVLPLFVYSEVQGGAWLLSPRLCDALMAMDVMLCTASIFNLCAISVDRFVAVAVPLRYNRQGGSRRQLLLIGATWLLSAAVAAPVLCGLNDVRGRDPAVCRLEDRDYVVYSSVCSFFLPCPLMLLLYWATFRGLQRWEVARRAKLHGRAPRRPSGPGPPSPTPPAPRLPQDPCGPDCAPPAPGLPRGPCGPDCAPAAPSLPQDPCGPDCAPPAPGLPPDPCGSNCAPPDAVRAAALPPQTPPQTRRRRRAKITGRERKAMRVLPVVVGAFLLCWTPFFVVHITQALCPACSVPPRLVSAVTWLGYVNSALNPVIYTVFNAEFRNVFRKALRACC", "test": "Receptor binding assay: Dopamine D4.4", "conditions": "Test Compound @ 10 1 M"}}, "note": "“Also recorded” adds a separate entry of the source."}
{"compound": "CN(C)CC(c1ccc(O)cc1)C1(O)CCC(O)CC1", "note": "(stereo not drawn) [1-[2-dimethylamino-1-(4-phenol)ethyl]-cis-1,4-cyclohexandiol]", "values": [{"measurement": "Receptor Binding % Inhibition", "setting": "Melatonin", "value": 11.20, "unit": "%"}, {"measurement": "Receptor Binding % Inhibition", "setting": "Sigma 1", "value": 2.96, "unit": "%"}, {"measurement": "reversal of tactile allodynia", "setting": "[1]", "value": "not found to reverse"}, {"measurement": "reversal of visceral pain (reduction in writhing)", "setting": "[2]; 100 mg/kg p.o., 60 minutes prior to PPQ, 100 mg/kg", "value": "statistically significant reversal; also recorded: significant reduction"}, {"measurement": "reduction in writhing", "setting": "[2]; 10 and 30 mg/kg p.o.", "value": "not statistically significant"}, {"measurement": "inhibition at 10 µM", "setting": "Adrenergic, Beta 2 (hr)", "value": -2.46, "unit": "%"}, {"measurement": "Receptor Binding % Inhibition", "setting": "Oxidase, MAO-A, Central", "value": 2.43, "unit": "%"}, {"measurement": "half-life", "setting": "[3]", "value": "> 60", "unit": "min"}, {"measurement": "inhibition at 10 µM", "setting": "Dopamine, D2s (hr)", "value": 6.17, "unit": "%"}, {"measurement": "inhibition at 10 µM", "setting": "Histamine, H1", "value": -7.84, "unit": "%"}, {"measurement": "inhibition at 10 µM", "setting": "Serotonin, 5HT6 (hr)", "value": 17.1, "unit": "%"}, {"measurement": "Solution Stability, time stable", "setting": "[4]", "value": "The compound was stable for at least 24 hours"}, {"measurement": "Receptor Binding % Inhibition", "setting": "Imidazoline, I1", "value": 17.43, "unit": "%"}, {"measurement": "inhibition at 10 µM", "setting": "Dopamine, D1 (hr)", "value": -5.73, "unit": "%"}, {"measurement": "Receptor Binding % Inhibition", "setting": "Imidazoline, I2 central", "value": 3.24, "unit": "%"}, {"measurement": "Receptor Binding % Inhibition", "setting": "Adrenergic, Alpha 1B", "value": 11.27, "unit": "%"}, {"measurement": "efflux activity", "setting": "CACO-2 cells; CACO-2, from B:A ratio", "value": "no efflux activity"}, {"measurement": "permeability classification", "setting": "CACO-2 cells; CACO-2, versus propranolol reference", "value": "high permeability"}, {"measurement": "inhibition at 10 µM", "setting": "Dopamine, D4.4 (hr)", "value": 3.39, "unit": "%"}]}
